The values that follow come from the supplement of paper PMC10290057.

Where a name gives a salt, the structure may show the parent alone.

Assay [1] deals with HCT116. Kind of assay: efficacy (fitted maximal change in viability relative to DMSO control); higher = less cytotoxic (negative = loss of viability). The settings on record: 48 h.
Assay [2] relates to HCT116. Kind of assay: AC50 cell viability (CellTiter-Glo); higher = less potent. The settings on record: 48 h. For orientation: ATP-based viability assays read luminescence as a measure of living cells.
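Wherever AC50 cell viability (CellTiter-Glo) is given: HCT116 colorectal carcinoma cells screened at five concentrations per compound, luminescent viability scaled between DMSO wells and empty wells on each plate, curves fitted per compound.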
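Wherever efficacy (fitted maximal change in viability relative to DMSO control) is given: Luminescence-based viability readout, five doses per compound, normalized against on-plate DMSO and empty-well controls, followed by dose-response curve fitting for every drug.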

Turning to `Cc1nc(Nc2ncc(C(=O)Nc3c(C)cccc3Cl)s2)cc(N2CCN(CCO)CC2)n1` [Dasatinib], the efficacy with HCT116 [1] is -81.1%. Further, the AC50 cell viability with HCT116 [2] stood at 14.8 µM.

Consider `C[C@@H]1C[C@H]2[C@@H]3\C=C(C)/C4=C/C5=C(C[C@]4(C)[C@H]3[C@@H](O)C[C@]2(C)[C@@]1(O)C(=O)CO)C=N[N]5C6=CC=CC=C6` [Deacetyl cortivazol], for which the efficacy in the assay on HCT116 [1] is -121%. The AC50 cell viability in the assay on HCT116 [2] was found to be 26.3 µM.

As for `CC[C@@](C)(Nc1ccnc(-c2c[nH]c3ncccc23)n1)C(=O)NCC(F)(F)F` [Decernotinib], the efficacy with HCT116 [1] is -56.7%. The compound further displayed an AC50 cell viability in the assay with HCT116 [2] of 20.9 µM.

As for `NC\1=N\C(=O)N(\C=N1)[C@H]2C[C@H](O)[C@@H](CO)O2` [Decitabine], the efficacy in the assay on HCT116 [1] is -42.1%. Moreover, the AC50 cell viability in the assay with HCT116 [2] was determined as 9.34 µM.

As to `CNC(=O)c1ccc(Nc2ncc(C(F)(F)F)c(NCc3nccnc3N(C)[S+](C)(=O)[O-])n2)cc1` [Defactinib], the efficacy in the assay on HCT116 [1] is -71.4%. The compound also registered an AC50 cell viability with HCT116 [2] of 1.86 µM.

Regarding `O=C(O)c1ccc(-n2nc(-c3ccccc3O)nc2-c2ccccc2O)cc1` [Deferasirox], in the assay with HCT116 [1], the efficacy is -92.9%. The compound also came in with an AC50 cell viability in the assay on HCT116 [2] of 13.2 µM.

As for `CC(=O)N(O)CCCCCNC(=O)CCC(=O)N(O)CCCCCNC(=O)CCC(=O)N(O)CCCCCN` [Deferoxamine mesylate], the efficacy in the assay on HCT116 [1] is -95.9%. For the same compound, in the assay on HCT116 [2], the AC50 cell viability is 9.34 µM.

`CCC[C@H](NC(=O)/C(C#N)=C/c1cccc(Br)n1)c1ccccc1` [Degrasyn]: in the assay with HCT116 [1], the efficacy is -104%. In the assay on HCT116 [2], the AC50 cell viability is 26.3 µM.

Consider `COC1=CC2=C(C=C1OC)[C@H]3[C@@H](CO2)OC4=C(C=CC5=C4\C=C/C(C)(C)O5)C3=O` [Deguelin], for which, in the assay on HCT116 [1], the efficacy is -82.8%. This compound registered an AC50 cell viability with HCT116 [2] of 5.25 µM.

Regarding `CC(C)C[C@H](NC(=O)[C@@H](NC(=O)c1cccc(-c2ccccc2)n1)[C@@H](C)O)B(O)O` [Delanzomib], in the assay on HCT116 [1], the efficacy was -84.8%. The compound further gave an AC50 cell viability in the assay with HCT116 [2] of 0.0362 µM.

For `c1ccc(Cn2c(-c3ccc(OCC(C4CCNCC4)n4c(-c5ccccc5)nc5ccccc54)cc3)nc3ccccc32)cc1` (stereo not drawn) [Deltarasin], the efficacy with HCT116 [1] is -89.7%. Besides, the AC50 cell viability with HCT116 [2] came to 9.34 µM.

`CN[C@H]1CCC2=CC(=C(OC)C(=C2C/3=C/C=C(OC)\C(=O)/C=C13)OC)OC` [Demecolcine]: the efficacy in the assay with HCT116 [1] is -62.6%. In addition, the AC50 cell viability with HCT116 [2] was found to be 0.059 µM.

On to `COCCNCCc1cccc(Nc2ncc3c(n2)-c2ccccc2[C@H](c2ccccc2F)C3)c1` [Derazantinib], for which the efficacy with HCT116 [1] is -95.8%. In the assay with HCT116 [2], this compound yielded an AC50 cell viability of 10.5 µM.

Consider `CCCCCCC(C)(C)C1=CC2=C([C@H]3CC(=C/CC3C(C)(C)O2)\CO)C(=C1)O` (stereo partly drawn) [Dexanabinol], for which, in the assay with HCT116 [1], the efficacy was -93.9%. This compound also came in with an AC50 cell viability in the assay on HCT116 [2] of 8.33 µM.

Regarding `ClC1=CC=C(C=C1)C(C#N)C2=C(Cl)C=C(C=C2Cl)N3\N=C/C(=O)NC3=O` (stereo not drawn) [Diclazuril], the efficacy in the assay with HCT116 [1] is -56%. This compound also returned an AC50 cell viability in the assay with HCT116 [2] of 23.5 µM.

As for `CC/C(=C(/CC)c1ccc(O)cc1)c1ccc(O)cc1` [Diethylstilbestrol], the efficacy in the assay with HCT116 [1] was -47.2%. In addition, the AC50 cell viability in the assay with HCT116 [2] is 18.6 µM.

For `C[C@H]1O[C@H](C[C@H](O)[C@@H]1O)O[C@H]2[C@@H](O)C[C@@H](O[C@@H]2C)O[C@H]3[C@@H](O)C[C@@H](O[C@@H]3C)O[C@H]4CC[C@@]5(C)[C@H](CC[C@@H]6[C@@H]5C[C@@H](O)[C@]7(C)[C@H](CC[C@]67O)C/8=C/C(=O)OC8)C4` [Digoxin], the efficacy with HCT116 [1] was -80.9%. The same compound gave an AC50 cell viability in the assay with HCT116 [2] of 0.0525 µM.

For the compound `C[C@@H]1CC[C@@]2(OC1)O[C@H]3C[C@H]4[C@@H]5C/C=C6/C[C@H](CC[C@]6(C)[C@H]5CC[C@]4(C)[C@H]3[C@@H]2C)O[C@@H]7O[C@H](CO)[C@@H](O[C@@H]8O[C@@H](C)[C@H](O)[C@@H](O)[C@H]8O)[C@H](O)[C@H]7O[C@@H]9O[C@@H](C)[C@H](O)[C@@H](O)[C@H]9O` [Dioscin], the efficacy in the assay on HCT116 [1] was -101%. In the assay with HCT116 [2], this compound showed an AC50 cell viability of 5.25 µM.

On to `CCN(CC)C(=S)SSC(=S)N(CC)CC` [Disulfiram], for which the efficacy in the assay with HCT116 [1] is -101%. Further, in the assay with HCT116 [2], the AC50 cell viability worked out at 16.6 µM.

In the case of `O=C(C(c1ccccc1)c1ccccc1)N1CCN(CC(O)COc2cccc3ncccc23)CC1` (stereo not drawn) [Dofequidar], the efficacy with HCT116 [1] was -50.3%. The compound also returned an AC50 cell viability with HCT116 [2] of 18.6 µM.

For the compound `O=c1[nH]c2ccccc2n1CCCN1CCC(n2c(=O)[nH]c3cc(Cl)ccc32)CC1` [Domperidone], in the assay on HCT116 [1], the efficacy was -68%. The compound further displayed an AC50 cell viability in the assay with HCT116 [2] of 18.6 µM.

With `Cc1ccc(-n2nc(C(C)(C)C)cc2NC(=O)Nc2ccc(OCCN3CCOCC3)c3ccccc23)cc1` [Doramapimod], in the assay on HCT116 [1], the efficacy was -76.9%. In addition, the AC50 cell viability with HCT116 [2] is 20.9 µM.

Consider `c1cc(-c2cnn3cc(-c4ccc(OCCN5CCCCC5)cc4)cnc23)ccn1` [Dorsomorphin], for which the efficacy in the assay on HCT116 [1] is -82.7%. In the assay on HCT116 [2], this compound had an AC50 cell viability of 4.68 µM.

In the case of `CN1CCN(CC1)C2=CC3=C([NH]C(=N3)C/4=C(\N)C5=C(F)C=CC=C5NC4=O)C=C2` [Dovitinib], in the assay on HCT116 [1], the efficacy was -106%. For the same compound, the AC50 cell viability in the assay on HCT116 [2] worked out at 8.33 µM.

In the case of `C=C1/C(=C\C=C2/CCC[C@]3(C)[C@@H]([C@H](C)/C=C/[C@H](C)C(C)C)CC[C@@H]23)C[C@@H](O)C[C@@H]1O` [Doxercalciferol], in the assay on HCT116 [1], the efficacy is -85.4%. The compound also showed an AC50 cell viability in the assay with HCT116 [2] of 23.5 µM.

For the compound `C[C@H]1O[C@H]([C@H](O)[C@@H]1O)N2\C=C(F)/C(=O)NC2=O` [Doxifluridine], the efficacy in the assay on HCT116 [1] was -68.1%. In addition, in the assay on HCT116 [2], the AC50 cell viability was 7.42 µM.

Regarding `COc1cccc2c1C(=O)c1c(O)c3c(c(O)c1C2=O)C[C@@](O)(C(=O)CO)C[C@@H]3O[C@H]1C[C@H](N)[C@H](O)[C@H](C)O1` [Doxorubicin], the efficacy in the assay with HCT116 [1] is -75.3%. In the assay on HCT116 [2], this compound came in with an AC50 cell viability of 0.372 µM.

On to `CCCCc1oc2ccc(N[S+](C)(=O)[O-])cc2c1C(=O)c1ccc(OCCCN(CCCC)CCCC)cc1` [Dronedarone hydrochloride], for which the efficacy in the assay on HCT116 [1] is -102%. Further, the AC50 cell viability in the assay on HCT116 [2] worked out at 8.33 µM.

In the case of `Cc1cc(Cl)ccc1OCCCC(=O)NO` [Droxinostat], the efficacy in the assay on HCT116 [1] was -57.1%. The AC50 cell viability in the assay with HCT116 [2] worked out at 20.9 µM.

Regarding `C[C@H](NC1=C2N=C[NH]C2=NC=N1)C/3=C/C4=C(C(=CC=C4)Cl)C(=O)N3C5=CC=CC=C5` [Duvelisib], in the assay on HCT116 [1], the efficacy is -72%. Besides, the AC50 cell viability with HCT116 [2] was determined as 18.6 µM.

Turning to `CCOc1cc2c(c(F)c1OCC)C(=N)N(CC(=O)c1cc(N3CCOCC3)c(OC)c(C(C)(C)C)c1)C2` [E5555], the efficacy in the assay on HCT116 [1] was -77%. Besides, the AC50 cell viability with HCT116 [2] was determined as 7.42 µM.

Take `COc1ccc([S+](=O)([O-])Nc2cccnc2Nc2ccc(O)cc2)cc1` [E-7010]: the efficacy in the assay on HCT116 [1] is -63.2%. In addition, in the assay with HCT116 [2], the AC50 cell viability came out at 0.59 µM.

Regarding `Cc1ccc(N[S+](=O)([O-])c2cccc(C#N)c2)c2[nH]cc(C#N)c12` [E-7820], the efficacy with HCT116 [1] was -53.2%. Moreover, in the assay on HCT116 [2], the AC50 cell viability is 0.417 µM.

Turning to `Cc1ccccc1C(=O)c1ccc(Nc2ccc(Br)cc2N)cc1Cl` [EO-1428], the efficacy with HCT116 [1] was -75.8%. The compound further returned an AC50 cell viability with HCT116 [2] of 20.9 µM.
